The values below come from paper PMC11238337, “Crafting Stable Antibiotic Nanoparticles via Complex Coacervation of Colistin with Block Copolymers” (Biomacromolecules, 2024).

Usually MIC50 stands for the lowest concentration that inhibits either 50% of growth or 50% of the strains tested, depending on the study.

The subject of one data set is A. vinelandii (DSM2290). Nature of the data set: Disk diffusion assay (DDA). The data set is classed as cell-based. The following applies: 3.0 μg colistin per disk, 24 h at 37 °C. The method, then: (§1) In the DDA, the susceptibility of Escherichia coli (DSM613), Serratia indica (NCIMB 8869), Pseudomonas fluorescens (DSM20030), A. vinelandii (DSM2290), and Bacillus subtilis (DSM10) was tested. Sterile filter disks (VWR) were impregnated (using an automatic pipette) with 3.0 μg of colistin from either colistin sulfate or colistin-C3Ms (at f+ = 0.50) in a concentration above the CMC (at 1.0 mg/mL) and dried under sterile air. Bacterial plates were prepared by freshly pouring bacterial medium until it set. Second, a layer of LB medium, that was premixed with 10 μL of bacteria from overnight cultures, was added. Then, the disks were added, and the plates were incubated for 24 h at 37 °C. The sizes of the inhibition zones were measured and averaged. Experiments were performed in triplicate. With the agar broth dilution testing, it was possible to determine the MIC50 values. LB liquid media in test tubes containing equal amounts of E. coli culture (10 μL of bacteria from overnight cultures to 5 mL of media) was mixed with either colistin or colistin-C3Ms with equal colistin for a concentration between 0.0 and 50 μg/mL. The test tubes were incubated for 24 h at 37 °C and their turbidity was measured with a McFarland turbidimeter. The agar broth dilution experiments were done in duplicate. To determine the MIC50 values, curves were averaged and then fitted with a sigmoid function.

Data set [1] has as its system Escherichia coli (DSM613). Nature of the data set: Disk diffusion assay (DDA). The data set is classed as cell-based. The following applies: 3.0 μg colistin per disk, 24 h at 37 °C, triplicate, averaged. The method, then:
as §1
Background: In agar diffusion tests the substance spreads into inoculated agar from a disc or well.

Data set [2] concerns Pseudomonas fluorescens (DSM20030). As to the kind of experiment: Disk diffusion assay (DDA). The data set is classed as cell-based. The following applies: 3.0 μg colistin per disk, 24 h at 37 °C. The method, then:
as §1

Data set [3] has as its system Serratia indica (NCIMB 8869). As to the kind of experiment: Disk diffusion assay (DDA). The data set is classed as cell-based. Particulars: 3.0 μg colistin per disk, 24 h at 37 °C. The procedure: as §1
Data set [4] relates to Bacillus subtilis (DSM10). As to the kind of experiment: Disk diffusion assay (DDA), control strain. The data set is classed as cell-based. The following applies: 3.0 μg colistin per disk, 24 h at 37 °C; Gram-positive negative control. The procedure: as §1
For the next data set, the system named is E. coli. As to the kind of experiment: Agar broth dilution testing for MIC50 (turbidity). The data set is classed as cell-based, Escherichia coli. The following applies: LB liquid media, 0.0-50 μg/mL colistin, 24 h at 37 °C, McFarland turbidity, duplicate, sigmoid fit; all concentrations below the CMC. The method, then:
as §1
(Broth dilution looks for growth in wells or tubes with falling amounts of substance.)

Another data set addresses T1, proteinase K (Parengyodontium album, UniProt P06873).
T1 construct: purchased Sigma Aldrich
As to the kind of experiment: Enzymatic breakdown susceptibility, SAXS read-out. The data set is classed as in vitro ADME. The following applies: 24 h at 37 °C.

The next data set addresses T2, subtilisin (Bacillus licheniformis, UniProt P00780).
T2 construct: purchased Sigma Aldrich
As to the kind of experiment: Enzymatic breakdown susceptibility, SAXS read-out. The data set is classed as in vitro ADME. The following applies: 24 h at 37 °C.

The test system of data set [5] is Human embryonic kidney (HEK 293 cells). Nature of the data set: Toxicity assay (LDH activity, caspase-3 level in medium). The data set is classed as cell-based. The procedure: (§2) Human embryonic kidney (HEK 293 cells) (ATCC, CRL-1573) were cultured in Dulbecco’s modified Eagle medium (DMEM), low glucose (Sigma Aldrich) supplemented with 100 U/mL penicillin and 100 μg/mL streptomycin (15140-122; Gibco, Waltham), 1% GlutaMAX (35050; Gibco), and 20% fetal bovine serum (F9665; Sigma Aldrich). Mesenchymal stem cells (MSC, PT-2501; Lonza) were cultured in Mesenchymal Stem Cell Basel Medium (PT-3238; Lonza)) supplemented with MSCGM SingleQuots (PT-4105; Lonza). Human gingival keratinocytes (HGK) (PCS-200-014; ATCC) were cultured in Dermal Cell Basal Medium (PCS-200-030; ATCC) supplemented with Keratinocytes Growth Kit (PCS-200-040; ATCC). Human umbilical cord endothelial cells (HUVEC, 200p-05n; Cell Applications) were cultured in Endothelial Cell Growth Medium (211-500; Cell Applications). The cell types were seeded in 12-well culture-treated plates at a density of 4 × 10^4 cells/cm^2. Upon confluency (set at time point 0), the cells were exposed to cell-specific growth medium containing formulations with a concentration of 1.0 mg/mL total concentration (0.7 mg/mL colistin) of f+ = 0.50 C3Ms or equivalent concentrations of colistin, and polymer as a control. The medium was changed for both control cells and stimulated cells every two days, 24 h before the harvest of the medium to ensure the same window of accumulated cell-secreted factors in the media. Cytotoxicity assays on lactate dehydrogenase (LDH) activity and caspase-3 level were performed at 24, 48, and 72 h and executed in triplicate. LDH activity in the cell culture media was evaluated using a cytotoxicity detection kit (11644793001; Roche). In short, 50 μL of the collected supernatant was mixed with 50 μL of the reaction mixture and incubated in a dark room at room temperature for 30 min.

Data set [6] deals with Human gingival keratinocytes (HGK). The data set is described as above. The data set is classed as cell-based. The following applies: 24 h; 0.7 mg/mL colistin. The method, then: as §2
Data set [7] relates to Mesenchymal stem cells (MSC). The data set is described as above. The data set is classed as cell-based, human. Particulars: 24 h, 0.7 mg/mL colistin. The procedure:
as §2, with “The medium was changed for both control cells and stimulated cells every two days, 24 h before the harvest of the medium to ensure the same window of accumulated cell-secreted factors in the media. Cytotoxicity assays on lactate dehydrogenase (LDH) activity and caspase-3 level were performed at 24, 48, and 72 h and executed in triplicate.” left out, “In short, 50 μL of the collected supernatant was mixed with 50 μL of the reaction mixture and incubated in a dark room at room temperature for 30 min.” left out

In another data set the test system is trypsin. As to the kind of experiment: Enzymatic breakdown susceptibility, SAXS read-out. The following applies: 24 h at 37 °C, enzyme:colistin ≈ 1:180.

T1 sequence (P06873 106-384): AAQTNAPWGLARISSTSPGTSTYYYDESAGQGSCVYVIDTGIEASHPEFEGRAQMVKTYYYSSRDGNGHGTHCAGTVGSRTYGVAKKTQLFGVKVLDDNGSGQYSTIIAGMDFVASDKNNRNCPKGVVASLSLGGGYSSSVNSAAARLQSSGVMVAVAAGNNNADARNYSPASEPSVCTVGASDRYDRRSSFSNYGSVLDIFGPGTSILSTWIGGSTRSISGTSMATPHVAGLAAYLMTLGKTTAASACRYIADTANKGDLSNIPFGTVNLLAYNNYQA
T2 sequence (P00780 106-379): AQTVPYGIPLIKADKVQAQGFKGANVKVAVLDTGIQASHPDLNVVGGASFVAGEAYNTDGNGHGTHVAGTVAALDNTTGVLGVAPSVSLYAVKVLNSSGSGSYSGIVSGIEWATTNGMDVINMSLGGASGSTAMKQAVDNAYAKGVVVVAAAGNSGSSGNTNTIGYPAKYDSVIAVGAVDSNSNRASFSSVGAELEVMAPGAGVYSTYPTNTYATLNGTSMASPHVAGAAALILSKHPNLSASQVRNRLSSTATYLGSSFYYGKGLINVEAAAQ
Protocol for proteinase K: (§3) The enzymatic breakdown susceptibility was analyzed by adding proteinase K (3.4.21.64; Sigma Aldrich), subtilisin (3.4.21.62; Sigma Aldrich), and trypsin (3.4.21.4; Sigma Aldrich) to either colistin (at 3.4 mg/mL) or C3Ms at f+ = 0.50 (total concentration 5.0 mg/mL) at their suppliers’ recommended concentration/ratio for optimized breakdown (molar ratios of enzyme:colistin ≈ 1:130 for proteinase K, ≈ 1:70 for subtilisin and ≈ 1:180 for trypsin). We assessed the difference in susceptibility between noncomplexed colistin and C3Ms. Colistin solution was incubated with enzymes for 24 h at 37 °C, after which polymer solution (kept 24 h at 37 °C) was added while in the other case, premade C3Ms were incubated with enzymes for 24 h at 37 °C. These samples were analyzed using SAXS and modeled, including enzyme scattering (using the Debye form factor since the scattering was too small to use a prolate/oblate ellipsoid form factor, eq 8) to monitor the molecular weight of the complex coacervates after exposure to enzyme degradation.
Protocol for subtilisin: as §3
Protocol for trypsin: as §3

For colistin sulfate, the “inhibition zone, result in words” value with A. vinelandii (DSM2290) is recorded as “immeasurable small inhibition zones”; in data set [2], “not visibly affected”; in data set [3] it was “grew back over the inhibition zones”; in [4], “no inhibition zones could be observed”. The “size of inhibition zone (ΔR)” value in data set [1] is 1.9 ± 0.1 mm. In addition, the MIC50 in the data set on E. coli stood at 1.5 ± 0.1 µg/mL. Moreover, at proteinase K (enzyme:colistin ≈ 1:130, colistin 3.4 mg/mL digested then complexed with polymer (without C3M protection) or premade C3Ms 5.0 mg/mL digested (with C3M protection), SAXS fit), the “Mw of complex coacervates after proteinase K degradation” value is given as 0.13 MDa. Besides, the “factor of reduction of average Mw of complex coacervates by proteinase K” value on proteinase K (versus untreated C3Ms) was “≈ 20”. Also, at subtilisin (enzyme:colistin ≈ 1:70, colistin 3.4 mg/mL digested then complexed with polymer (without C3M protection) or premade C3Ms 5.0 mg/mL digested (with C3M protection), SAXS fit), the “Mw of complex coacervates after subtilisin degradation” value is recorded as 0.042 MDa. Further, the “factor of reduction of Mw of complex coacervates by subtilisin” value on subtilisin (versus untreated C3Ms) is listed as “≈ 50”. Also, the “LDH activity versus control” value in data set [5] (24, 48, 72 h, 0.7 mg/mL colistin) was “no significant differences”. In data set [5] (day one (24 h), 0.7 mg/mL colistin (1.0 mg/mL total for C3Ms), mean of 3), the “caspase-3 level, fold change of control” value was “up to 3 fold”. The “LDH (necrosis), result in words” value in data set [6] is reported as “caused necrosis (LDH)”. Also, the “caspase-3 (apoptosis), result in words” value in data set [6] is recorded as “apoptosis (caspase-3)”. Further, in data set [7], the “caspase-3 level versus control” value is “no significant difference”. Besides, in [7] (mean of 3), the “LDH activity, fold change of control” value was 2 fold. Moreover, in the data set with trypsin, the “breakdown by trypsin, result in words” value is on record as “ineffective in breaking down colistin”.
